Tests used:
[1] = target: Atypical kinase COQ8A, mitochondrial (Homo sapiens) (UniProt Q8NI60); experiment: Inhibition of ADCK3 (unknown origin) assessed as residual activity at 1000 nM by KINOMEscan analysis relative to control
[2] = target: RAC-alpha serine/threonine-protein kinase (Homo sapiens) (UniProt P31749); experiment: Inhibition of AKT1 (unknown origin) assessed as residual activity at 1000 nM by KINOMEscan analysis relative to control
[3] = target: Tyrosine-protein kinase receptor UFO (Homo sapiens) (UniProt P30530); experiment: Inhibition of AXL (unknown origin) assessed as residual activity at 1000 nM by KINOMEscan analysis relative to control
[4] = target: Calcium/calmodulin-dependent protein kinase type II subunit alpha (Homo sapiens) (UniProt Q9UQM7); experiment: Inhibition of CAMK2A (unknown origin) assessed as residual activity at 1000 nM by KINOMEscan analysis relative to control
[5] = target: Macrophage colony-stimulating factor 1 receptor (Homo sapiens) (UniProt P07333); experiment: Inhibition of CSF1R (unknown origin) assessed as residual activity at 1000 nM by KINOMEscan analysis relative to control
[6] = target: Casein kinase I isoform gamma-2 (Homo sapiens) (UniProt P78368); experiment: Inhibition of CSNK1G2 (unknown origin) assessed as residual activity at 1000 nM by KINOMEscan analysis relative to control
Chain of Casein kinase I isoform gamma-2 (Homo sapiens) (P78368 whole entry, looked up, canonical isoform): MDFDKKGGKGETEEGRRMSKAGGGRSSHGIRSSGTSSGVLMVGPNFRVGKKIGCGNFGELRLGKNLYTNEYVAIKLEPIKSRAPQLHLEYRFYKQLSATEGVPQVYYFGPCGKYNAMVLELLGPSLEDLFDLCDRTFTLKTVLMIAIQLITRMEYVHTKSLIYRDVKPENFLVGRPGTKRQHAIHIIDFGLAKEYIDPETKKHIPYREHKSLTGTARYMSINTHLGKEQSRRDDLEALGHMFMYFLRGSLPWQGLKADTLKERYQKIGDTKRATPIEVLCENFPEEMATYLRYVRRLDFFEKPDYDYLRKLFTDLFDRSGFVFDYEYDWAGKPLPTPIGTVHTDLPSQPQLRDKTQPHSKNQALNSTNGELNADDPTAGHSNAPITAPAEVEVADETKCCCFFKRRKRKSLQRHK

[7] = target: T1, Myotonin-protein kinase (Homo sapiens) (UniProt Q09013); experiment: Inhibition of DMPK (unknown origin) assessed as residual activity at 1000 nM by KINOMEscan analysis relative to control
T1 sequence (whole entry): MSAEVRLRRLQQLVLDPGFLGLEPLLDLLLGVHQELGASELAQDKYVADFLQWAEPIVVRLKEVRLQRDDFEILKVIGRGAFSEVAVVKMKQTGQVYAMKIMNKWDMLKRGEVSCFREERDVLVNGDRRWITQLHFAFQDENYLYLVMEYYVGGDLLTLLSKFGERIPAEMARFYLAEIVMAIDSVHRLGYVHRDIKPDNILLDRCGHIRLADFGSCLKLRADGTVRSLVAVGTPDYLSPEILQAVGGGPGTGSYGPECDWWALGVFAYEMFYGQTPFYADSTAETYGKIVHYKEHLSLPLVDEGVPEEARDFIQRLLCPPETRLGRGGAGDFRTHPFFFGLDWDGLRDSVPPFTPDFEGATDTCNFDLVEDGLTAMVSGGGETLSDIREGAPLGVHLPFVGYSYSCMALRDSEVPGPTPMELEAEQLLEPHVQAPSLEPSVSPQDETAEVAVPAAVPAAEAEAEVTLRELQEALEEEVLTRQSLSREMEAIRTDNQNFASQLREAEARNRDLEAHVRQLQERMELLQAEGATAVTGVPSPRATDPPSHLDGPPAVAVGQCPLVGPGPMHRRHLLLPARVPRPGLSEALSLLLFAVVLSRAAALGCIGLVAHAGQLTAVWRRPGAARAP

[8] = target: T2, Rhodopsin kinase GRK7 (Homo sapiens) (UniProt Q8WTQ7); experiment: Inhibition of GRK7 (unknown origin) assessed as residual activity at 1000 nM by KINOMEscan analysis relative to control
T2 sequence (whole entry): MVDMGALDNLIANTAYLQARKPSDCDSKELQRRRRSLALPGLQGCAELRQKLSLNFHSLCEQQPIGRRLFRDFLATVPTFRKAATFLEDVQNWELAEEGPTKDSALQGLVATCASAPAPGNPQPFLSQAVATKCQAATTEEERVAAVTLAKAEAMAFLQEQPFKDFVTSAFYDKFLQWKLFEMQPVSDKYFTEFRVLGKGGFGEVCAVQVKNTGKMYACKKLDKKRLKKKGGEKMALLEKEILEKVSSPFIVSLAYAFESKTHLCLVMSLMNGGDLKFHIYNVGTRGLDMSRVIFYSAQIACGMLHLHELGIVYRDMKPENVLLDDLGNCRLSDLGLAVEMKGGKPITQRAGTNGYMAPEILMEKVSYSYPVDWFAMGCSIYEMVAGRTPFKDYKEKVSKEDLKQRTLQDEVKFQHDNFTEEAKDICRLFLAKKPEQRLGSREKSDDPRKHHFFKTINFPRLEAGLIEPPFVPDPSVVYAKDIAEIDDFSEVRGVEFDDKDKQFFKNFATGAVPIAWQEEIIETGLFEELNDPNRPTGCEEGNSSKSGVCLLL

[9] = target: Mitogen-activated protein kinase kinase kinase 1 (Homo sapiens) (UniProt Q13233); experiment: Inhibition of MAP3K1 (unknown origin) assessed as residual activity at 1000 nM by KINOMEscan analysis relative to control
Chain of Mitogen-activated protein kinase kinase kinase 1 (Homo sapiens) (Q13233 whole entry): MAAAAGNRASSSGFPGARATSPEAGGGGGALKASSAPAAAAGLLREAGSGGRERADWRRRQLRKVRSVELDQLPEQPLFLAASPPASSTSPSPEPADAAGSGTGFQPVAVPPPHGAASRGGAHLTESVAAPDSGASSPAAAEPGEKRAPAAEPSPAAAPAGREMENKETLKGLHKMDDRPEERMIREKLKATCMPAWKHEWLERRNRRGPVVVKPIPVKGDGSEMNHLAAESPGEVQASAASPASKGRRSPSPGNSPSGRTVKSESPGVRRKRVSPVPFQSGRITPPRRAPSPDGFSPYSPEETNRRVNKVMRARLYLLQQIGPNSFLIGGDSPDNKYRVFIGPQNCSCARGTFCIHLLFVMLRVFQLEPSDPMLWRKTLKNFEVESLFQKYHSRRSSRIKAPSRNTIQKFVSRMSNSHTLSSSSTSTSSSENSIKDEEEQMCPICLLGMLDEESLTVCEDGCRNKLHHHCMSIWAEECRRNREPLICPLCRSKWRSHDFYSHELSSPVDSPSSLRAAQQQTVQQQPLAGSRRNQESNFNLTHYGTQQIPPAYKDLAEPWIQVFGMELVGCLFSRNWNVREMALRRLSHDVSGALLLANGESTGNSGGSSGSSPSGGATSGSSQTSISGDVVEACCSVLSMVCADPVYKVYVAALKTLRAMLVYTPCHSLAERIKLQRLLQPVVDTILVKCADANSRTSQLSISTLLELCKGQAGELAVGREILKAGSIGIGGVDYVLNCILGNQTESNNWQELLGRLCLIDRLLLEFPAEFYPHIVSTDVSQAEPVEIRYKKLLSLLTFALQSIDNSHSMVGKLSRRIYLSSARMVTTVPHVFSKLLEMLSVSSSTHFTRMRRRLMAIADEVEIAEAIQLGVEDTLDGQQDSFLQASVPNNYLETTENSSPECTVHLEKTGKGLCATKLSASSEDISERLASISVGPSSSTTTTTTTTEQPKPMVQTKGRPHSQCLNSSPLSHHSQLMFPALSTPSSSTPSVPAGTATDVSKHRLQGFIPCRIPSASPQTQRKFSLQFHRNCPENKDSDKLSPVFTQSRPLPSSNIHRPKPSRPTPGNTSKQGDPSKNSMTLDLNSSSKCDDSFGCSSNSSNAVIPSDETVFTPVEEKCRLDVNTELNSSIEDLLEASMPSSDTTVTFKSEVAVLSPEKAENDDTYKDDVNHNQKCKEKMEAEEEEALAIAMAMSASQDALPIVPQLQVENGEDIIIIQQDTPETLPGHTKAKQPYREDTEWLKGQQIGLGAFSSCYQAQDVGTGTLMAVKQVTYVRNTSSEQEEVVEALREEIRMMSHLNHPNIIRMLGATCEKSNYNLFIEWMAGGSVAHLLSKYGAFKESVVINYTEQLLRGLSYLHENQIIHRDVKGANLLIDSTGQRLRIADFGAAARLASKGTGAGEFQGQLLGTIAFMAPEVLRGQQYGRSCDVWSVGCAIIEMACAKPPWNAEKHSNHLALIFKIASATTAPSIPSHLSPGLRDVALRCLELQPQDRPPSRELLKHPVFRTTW

[10] = target: Serine/threonine-protein kinase 38-like (Homo sapiens) (UniProt Q9Y2H1); experiment: Inhibition of NDR2 (unknown origin) assessed as residual activity at 1000 nM by KINOMEscan analysis relative to control
Chain of Serine/threonine-protein kinase 38-like (Homo sapiens) (Q9Y2H1 2-464 limits assumed): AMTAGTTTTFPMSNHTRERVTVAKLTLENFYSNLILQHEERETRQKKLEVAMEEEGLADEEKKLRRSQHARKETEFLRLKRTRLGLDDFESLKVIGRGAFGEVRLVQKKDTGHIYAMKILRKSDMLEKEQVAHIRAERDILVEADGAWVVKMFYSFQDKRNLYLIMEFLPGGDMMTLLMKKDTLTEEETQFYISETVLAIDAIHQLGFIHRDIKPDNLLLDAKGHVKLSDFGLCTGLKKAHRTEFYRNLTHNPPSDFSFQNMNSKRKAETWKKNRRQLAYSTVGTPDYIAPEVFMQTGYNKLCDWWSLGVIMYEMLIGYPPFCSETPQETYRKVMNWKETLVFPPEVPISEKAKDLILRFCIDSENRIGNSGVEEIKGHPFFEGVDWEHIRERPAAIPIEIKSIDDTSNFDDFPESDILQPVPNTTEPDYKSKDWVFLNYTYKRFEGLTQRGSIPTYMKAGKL

[11] = tested on: Phosphatidylinositol 4,5-bisphosphate 3-kinase catalytic subunit alpha isoform (Homo sapiens), P42336 [E545A]; experiment: Inhibition of PIK3CA E545A mutant (unknown origin) assessed as residual activity at 1000 nM by KINOMEscan analysis relative to control
[12] = target: Serine/threonine-protein kinase SIK3 (Homo sapiens) (UniProt Q9Y2K2); experiment: Inhibition of QSK (unknown origin) assessed as residual activity at 1000 nM by KINOMEscan analysis relative to control
[13] = target: TRAF2 and NCK-interacting protein kinase (Homo sapiens) (UniProt Q9UKE5); experiment: Inhibition of TNIK (unknown origin) assessed as residual activity at 1000 nM by KINOMEscan analysis relative to control
Chain of TRAF2 and NCK-interacting protein kinase (Homo sapiens) (Q9UKE5 whole entry, looked up): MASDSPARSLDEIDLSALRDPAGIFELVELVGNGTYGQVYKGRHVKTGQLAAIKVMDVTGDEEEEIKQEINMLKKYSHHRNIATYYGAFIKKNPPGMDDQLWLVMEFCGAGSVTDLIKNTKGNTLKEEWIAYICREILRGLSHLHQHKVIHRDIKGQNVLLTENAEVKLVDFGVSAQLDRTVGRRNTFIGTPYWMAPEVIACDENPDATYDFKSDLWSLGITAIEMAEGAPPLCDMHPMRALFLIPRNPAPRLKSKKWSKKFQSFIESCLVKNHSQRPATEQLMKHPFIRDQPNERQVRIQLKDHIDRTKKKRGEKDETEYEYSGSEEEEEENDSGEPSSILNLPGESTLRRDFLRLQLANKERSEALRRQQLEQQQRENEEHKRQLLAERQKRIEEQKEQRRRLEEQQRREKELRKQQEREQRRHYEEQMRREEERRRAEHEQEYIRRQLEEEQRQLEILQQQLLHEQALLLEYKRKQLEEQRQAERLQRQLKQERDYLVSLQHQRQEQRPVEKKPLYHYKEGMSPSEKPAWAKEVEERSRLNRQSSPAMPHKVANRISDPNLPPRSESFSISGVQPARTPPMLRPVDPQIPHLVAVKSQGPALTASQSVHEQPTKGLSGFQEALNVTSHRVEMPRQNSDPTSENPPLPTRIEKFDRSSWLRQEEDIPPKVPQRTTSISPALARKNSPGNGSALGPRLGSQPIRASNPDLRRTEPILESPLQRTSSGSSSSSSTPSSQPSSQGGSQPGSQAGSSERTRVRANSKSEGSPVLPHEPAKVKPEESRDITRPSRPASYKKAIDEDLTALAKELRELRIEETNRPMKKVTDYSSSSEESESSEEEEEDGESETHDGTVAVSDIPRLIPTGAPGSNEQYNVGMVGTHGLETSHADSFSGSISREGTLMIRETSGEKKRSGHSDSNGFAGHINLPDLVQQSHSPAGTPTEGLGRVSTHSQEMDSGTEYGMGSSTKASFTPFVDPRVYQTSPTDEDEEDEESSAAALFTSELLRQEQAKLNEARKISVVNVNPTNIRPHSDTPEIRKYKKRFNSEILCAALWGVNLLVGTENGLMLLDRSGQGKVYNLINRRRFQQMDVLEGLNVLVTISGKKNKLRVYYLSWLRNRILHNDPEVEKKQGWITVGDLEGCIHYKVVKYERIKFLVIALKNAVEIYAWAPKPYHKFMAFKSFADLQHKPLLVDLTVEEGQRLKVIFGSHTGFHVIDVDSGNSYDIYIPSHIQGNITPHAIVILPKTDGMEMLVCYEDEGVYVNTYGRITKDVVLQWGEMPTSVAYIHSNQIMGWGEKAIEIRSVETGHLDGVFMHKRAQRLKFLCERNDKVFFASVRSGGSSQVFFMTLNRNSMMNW

[14] = target: Tyrosine-protein kinase Yes (Homo sapiens) (UniProt P07947); experiment: Inhibition of YES (unknown origin) assessed as residual activity at 1000 nM by KINOMEscan analysis relative to control

Chain of RAC-alpha serine/threonine-protein kinase (Homo sapiens) (P31749 whole entry): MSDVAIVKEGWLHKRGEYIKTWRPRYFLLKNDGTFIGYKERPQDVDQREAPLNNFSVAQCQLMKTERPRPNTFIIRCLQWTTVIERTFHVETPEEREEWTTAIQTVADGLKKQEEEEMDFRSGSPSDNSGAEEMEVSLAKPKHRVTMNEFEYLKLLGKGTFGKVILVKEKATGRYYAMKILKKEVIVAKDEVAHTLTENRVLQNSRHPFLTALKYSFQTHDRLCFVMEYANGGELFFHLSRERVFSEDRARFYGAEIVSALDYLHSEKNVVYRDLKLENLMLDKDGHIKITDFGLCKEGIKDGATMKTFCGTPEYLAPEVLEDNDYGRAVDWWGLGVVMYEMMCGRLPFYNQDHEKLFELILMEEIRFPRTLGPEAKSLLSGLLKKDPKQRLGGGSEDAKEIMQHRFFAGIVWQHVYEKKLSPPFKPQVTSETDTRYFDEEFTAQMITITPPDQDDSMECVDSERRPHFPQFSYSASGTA
Chain of Atypical kinase COQ8A, mitochondrial (Homo sapiens) (Q8NI60 163-647 limits assumed): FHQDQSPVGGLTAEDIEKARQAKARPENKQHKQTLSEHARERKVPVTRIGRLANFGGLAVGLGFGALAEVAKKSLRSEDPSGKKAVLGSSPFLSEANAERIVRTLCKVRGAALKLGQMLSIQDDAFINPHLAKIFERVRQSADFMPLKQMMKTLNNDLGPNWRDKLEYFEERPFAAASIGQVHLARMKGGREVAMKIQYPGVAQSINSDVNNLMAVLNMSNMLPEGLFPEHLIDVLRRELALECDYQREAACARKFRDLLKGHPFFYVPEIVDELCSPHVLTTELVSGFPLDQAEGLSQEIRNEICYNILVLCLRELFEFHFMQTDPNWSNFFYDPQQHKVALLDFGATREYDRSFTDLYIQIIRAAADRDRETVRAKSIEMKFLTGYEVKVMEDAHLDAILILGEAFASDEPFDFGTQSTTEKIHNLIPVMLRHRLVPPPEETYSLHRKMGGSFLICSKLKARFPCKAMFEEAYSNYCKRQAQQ

| SMILES | Activity [1] [%] | Activity [2] [%] | Activity [3] [%] | Activity [4] [%] | Activity [5] [%] | Activity [6] [%] | Activity [7] [%] | Activity [8] [%] | Activity [9] [%] | Activity [10] [%] | Activity [11] [%] | Activity [12] [%] | Activity [13] [%] | Activity [14] [%] |
| --- | --- | --- | --- | --- | --- | --- | --- | --- | --- | --- | --- | --- | --- | --- |
| COc1cc2nc(C)nc(N[C@H](C)c3cccc(-c4cn[nH]c4)c3)c2cc1OC | 98 | 82 | 93 | 94 | 94 | 100 | 87 | 100 | 77 | 87 | 66 | 83 | 87 | 67 |
| COc1cc2ncnc(N[C@H](C)c3cccc4ccccc34)c2cc1OC | 94 | 87 | 90 | 95 | 76 | 100 | 100 | 81 | 100 | 86 | 91 | 84 | 100 | 100 |

Source: ChEMBL document CHEMBL5678818, “Discovery of potent SOS1 inhibitors that block RAS activation via disruption of the RAS-SOS1 interaction” (Proc Natl Acad Sci U S A, 2019)
